{"source": "patent US20090281040A1", "about": "“Methods For Treating Endoplasmic Reticulum (ER) Stress Disorders” (priority 2008, published 2009)", "key": {"ATF6": {"system": "ATF6", "test": "ATF6 protein level immunoblot in COS7 cells expressing ATF6-HA and WFS1-FLAG", "type": "cell-based", "conditions": "MG132 15 μM, 3 hr", "method": "To investigate whether the decrease in ATF6 protein level is proteosome-dependent, COS7 cells expressing ATF6-HA or ATF6-HA and WFS1-FLAG were either untreated (UT) or treated with the proteosome inhibitor MG132 (15 μM) for 3 hr. Lysates were immunoblotted with anti-HA, anti-FLAG, and anti-actin antibodies."}, "AATF mRNA [1]": {"system": "AATF mRNA", "test": "AATF mRNA expression by real-time PCR in cells treated with ER stress inducers", "type": "cell-based, rat; mouse", "conditions": "for AATF mRNA expression: INS-1 832/13, neuro2A cells and mouse embryonic fibroblasts, 16 hr, TM 5 μg/ml, Tg 1 μM, MG132 2 μM, STR 0.05 and 0.01 μM", "method": "Cell culture and transfection of small interfering RNA. Rat insulinoma cells, INS-1 832/13, were a gift from Dr. Christopher Newgard (Duke University Medical Center). These cells were cultured in RPMI 1640 supplemented with 10% FBS. Mouse embryonic fibroblasts, COS7 cells, and Neuro2a cells were maintained in DMEM with 10% fetal bovine serum. Human neuroblastoma cells, SH-SY5Y cells, were cultured in DMEM/F12 with 10% fetal bovine serum.\n(§1) Real-time polymerase chain reaction. Total RNA was isolated from cells using RNeasy Mini Kit (Qiagen) and reverse transcribed using 1 μg of total RNA from cells with Oligo-dT primer. For the thermal cycle reaction, the iQ5 system (BioRad, Hercules, Calif.) was used at 95° C. for 10 min, 40 cycles at 95° C. for 10 sec, and at 55° C. for 30 sec.\nThe relative amount for each transcript was calculated by a standard curve of cycle thresholds for serial dilutions of cDNA samples and normalized to the amount of actin. The polymerase chain reaction (PCR) was done in triplicate for each sample, after which all experiments were repeated twice. The following sets of primers and Power SYBR Green PCR Master Mix (Applied Biosystems, Foster City, Calif.) were used for real-time PCR: […]"}, "AATF mRNA [2]": {"system": "AATF mRNA", "test": "AATF mRNA by real-time PCR in wild-type, Ire1α−/− and Perk−/− mouse embryonic fibroblasts", "type": "cell-based", "conditions": "for attenuation of the induction of AATF: Ire1α−/− cells versus wild-type; for induction of AATF: Perk−/− mouse embryonic fibroblasts versus wild-type", "method": "as §1\n(§2) The relative amount for each transcript was calculated by a standard curve of cycle thresholds for serial dilutions of cDNA samples and normalized to the amount of actin. The polymerase chain reaction (PCR) was done in triplicate for each sample, after which all experiments were repeated twice. The following sets of primers and Power SYBR Green PCR Master Mix (Applied Biosystems, Foster City, Calif.) were used for real-time PCR:\nThe pathway by which AATF expression is regulated was investigated. IRE 1 and PERK are ER-resident protein kinases and regulators of the UPR. The expression levels of AATF were measured by real-time PCR in Ire1α^−/− and Perk^−/− mouse embryonic fibroblasts under ER stress conditions. […] To confirm this, Perk^−/− mouse embryonic fibroblasts were transfected with PERK expression plasmid, then AATF gene expression was measured. Chop expression was also measured as a control. PERK expression could restore both AATF and Chop expression (FIG. 2D)."}, "WFS1-ATF6 complex": {"system": "WFS1-ATF6 complex", "test": "WFS1-ATF6 co-immunoprecipitation in INS-1 832/13 cells", "type": "cell-based, rat", "method": "Both WFS1 and ATF6 are transmembrane proteins localized to the ER. The association of WFS1 with ATF6 in INS-1 832/13 cells was examined. An anti-WFS1 antibody was used to immunoprecipitate (IP) WFS1 from INS-1 832/13 cells untreated (UT) or treated with the ER stress inducer DTT (1 mM) for 0.5 hr, 1.5 hr, or 3 hr. Immunoprecipitates were then subject to immunoblot (IB) analysis using anti-ATF6, anti-WFS1, and anti-actin antibodies. […] To confirm that the interaction between WFS1 and ATF6 is recovered post-stress, an anti-WFS1 antibody was used to immunoprecipiate (IP) WFS1 from INS-1 832/13 cells untreated (UT) or treated with the ER stress inducer DTT (1 mM) for 2 hr. The cells were then chased in normal media for 0 hr and 3 hr. Immunoprecipitates were subject to immunoblot (IB) analysis using anti-ATF6, anti-WFS1, and anti-actin antibodies. The relative amount of ATF6 protein was quantified using ImageJ software."}, "Akt1 mRNA": {"system": "Akt1 mRNA", "test": "Akt1 mRNA expression by real-time PCR", "type": "cell-based, rat; mouse", "conditions": "Tg 1 μM", "method": "as §1, §2\nWhether Akt1 expression is increased by ER stress was examined. The expression levels of Akt1 mRNA were measured in the presence of ER stress in INS-1 832/13, neuro2A, and mouse embryonic fibroblasts."}, "AATF": {"system": "AATF", "test": "AATF immunoblot of cytoplasmic and nuclear extracts from INS-1 832/13 cells", "type": "cell-based, rat", "conditions": "Tg 1 μM", "method": "Immunoblotting. Cells were lysed for 15 min on ice at 4° C. in ice-cold M-PER buffer (PIERCE, Rockford, Ill.) containing protease inhibitors. The lysates were then cleared by centrifuging the cells at 13,000 g. Lysates were normalized for total protein, separated by SDS-PAGE (15% gel or 5%-20% gradient gel), and transferred onto a polyvinylidene difluoride membrane. To detect human AATF protein, anti-AATF antibody from Bethyl (Montgomery, Tex.) was used. To detect rat AATF protein, a rabbit anti-AATF antibody generated using a peptide, RPREADPEADPEEATR, was used. Anti-actin and anti-myc (9E10) antibodies were purchased from Sigma (St. Louis, Mo.); anti-eIF2α was purchased from Santa Cruz Biotechnology (Santa Cruz, Calif.); anti-phospho-eIF2α, anti-Akt, anti-Akt1, anti-phospho-Akt, anti-Creb, anti-tubulin, and anti-caspase-3 antibodies were purchased from Cell Signaling (Danvers, Mass.)."}, "Akt": {"system": "Akt", "test": "Akt, Akt1 and phosphorylated Akt immunoblot in INS-1 832/13 cells", "type": "cell-based, rat", "conditions": "INS1 832/13 cells, Tg 1 μM", "method": "(§3) Immunoblotting. Cells were lysed for 15 min on ice at 4° C. in ice-cold M-PER buffer (PIERCE, Rockford, Ill.) containing protease inhibitors. The lysates were then cleared by centrifuging the cells at 13,000 g. Lysates were normalized for total protein, separated by SDS-PAGE (15% gel or 5%-20% gradient gel), and transferred onto a polyvinylidene difluoride membrane. To detect human AATF protein, anti-AATF antibody from Bethyl (Montgomery, Tex.) was used. To detect rat AATF protein, a rabbit anti-AATF antibody generated using a peptide, RPREADPEADPEEATR, was used. […]\nIt has been proposed that phosphorylation of Akt is important in protecting cells from apoptosis (Srinivasan, S., et al., Diabetes 54, 968-975 (2005). As shown in FIG. 4C (right panel), phosphorylation level of Akt was increased up to 8 hr after treatment, but decreased at 24 hr. To study the relationship between AATF suppression and Akt phosphorylation, AATF expression was suppressed using siRNA directed against AATF in INS-1 832/13 cells and the cells were treated with thapsigargin for 0, 3, and 8 hr, then Akt expression and Akt phosphorylation levels were measured by immunoblot. Both Akt expression and Akt phosphorylation levels were decreased by AATF siRNA (FIG. 4D). […] INS-1 832/13 cells were infected with the virus and Akt1 expression levels were measured."}, "eIF2α phosphorylation": {"system": "eIF2α phosphorylation", "test": "eIF2α phosphorylation immunoblot in mouse embryonic fibroblasts", "type": "cell-based", "design": "dose or concentration left out as unconfirmed", "conditions": "16 hr", "method": "as §3\nIt is established that PERK-mediated eIF2α phosphorylation has role in the up-regulation of its target genes (see, e.g., Harding, H. P., et al., Mol Cell 6, 1099-1108 (2000); Harding et al., Nature 397, 271-274 (1999)). Whether eIF2α phosphorylation could increase AATF expression was determined. Wild-type and Perk^−/− mouse fibroblasts were treated with salubrinal, a compound that increases eIF2α phosphorylation (see Boyce, M., et al., Science (New York, N.Y. 307, 935-939 (2005)), then AATF expression was measured, with Chop expression as a control. AATF expression, as well as Chop expression, was increased by salubrinal treatment in both wild-type and Perk^−/− mouse embryonic fibroblasts (FIG. 2C, upper panel). Immunoblot confirmed that eIF2α phosphorylation levels were increased by salubrinal (FIG. 2C, lower panel)."}, "Chop mRNA": {"system": "Chop mRNA", "test": "Chop mRNA by real-time PCR in wild-type and Perk−/− mouse embryonic fibroblasts", "type": "cell-based", "design": "dose or concentration left out as unconfirmed", "conditions": "Salubrinal, 16 hr", "method": "as §1, §2\nIt is established that PERK-mediated eIF2α phosphorylation has role in the up-regulation of its target genes (see, e.g., Harding, H. P., et al., Mol Cell 6, 1099-1108 (2000); Harding et al., Nature 397, 271-274 (1999)). Whether eIF2α phosphorylation could increase AATF expression was determined. […]"}}, "note": "Where a SMILES comes first, the peptide text is derived from it. The star is where a group is joined. Cbz = O=C(OCc1ccccc1)*", "data": [{"compound": "CC(C)C[C@@H](C=O)NC(=O)[C@H](CC(C)C)NC(=O)[C@H](CC(C)C)NC(=O)OCc1ccccc1", "note": "[MG132] (Cbz-Leu-Leu-Leu-aldehyde)", "values": [{"measurement": "ATF6 protein levels", "setting": "ATF6", "result": "almost full recovery"}, {"measurement": "AATF mRNA expression", "setting": "AATF mRNA [1]", "result": "up-regulated"}]}, {"compound": "tunicamycin", "values": [{"measurement": "AATF mRNA expression", "setting": "AATF mRNA [1]", "result": "up-regulated"}, {"measurement": "attenuation of the induction of AATF", "setting": "AATF mRNA [2]", "result": "not"}, {"measurement": "induction of AATF", "setting": "AATF mRNA [2]", "result": "attenuated"}]}, {"compound": "O[C@@H](CS)[C@@H](O)CS", "note": "[DTT]", "values": [{"measurement": "interaction of ATF6 and WFS1 post-stress", "setting": "WFS1-ATF6 complex; DTT 1 mM 2 hr, then 3 hour chase in normal media", "result": "began to recover"}, {"measurement": "dissociation of ATF6 from WFS1", "setting": "WFS1-ATF6 complex; DTT 1 mM, 3 hours post-treatment, time-dependent", "result": "almost complete dissociation"}]}, {"compound": "CN[C@@H]1C[C@H]2O[C@@](C)([C@@H]1OC)n1c3ccccc3c3c4c(c5c6ccccc6n2c5c31)C(=O)NC4", "note": "[staurosporin]", "values": [{"measurement": "AATF mRNA expression", "setting": "AATF mRNA [1]", "result": "not"}, {"measurement": "increase of Akt1 mRNA expression", "setting": "Akt1 mRNA; INS-1 832/13, neuro2A and mouse embryonic fibroblasts, 16 hr, TM 5 μg/ml, MG132 2 μM, STR 0.05 and 0.01 μM", "result": "not"}]}, {"compound": "C/C=C(/C)C(=O)O[C@H]1C(C)=C2[C@H]([C@@H]1OC(=O)CCCCCCC)[C@@](C)(OC(C)=O)C[C@H](OC(=O)CCC)[C@@]1(O)[C@H]2OC(=O)[C@@]1(C)O", "note": "[thapsigargin]", "values": [{"measurement": "AATF mRNA expression", "setting": "AATF mRNA [1]", "result": "up-regulated"}, {"measurement": "AATF mRNA expression, time course", "setting": "AATF mRNA [1]; INS-1 832/13 cells, Tg 0.5 μM, indicated times", "result": "continued to increase up to 24 hr"}, {"measurement": "attenuation of the induction of AATF", "setting": "AATF mRNA [2]", "result": "not"}, {"measurement": "induction of AATF", "setting": "AATF mRNA [2]", "result": "attenuated"}, {"measurement": "AATF protein expression in cytoplasmic and nuclear extracts", "setting": "AATF", "result": "up-regulated"}, {"measurement": "time of peak Akt1 mRNA expression during ER stress", "setting": "Akt1 mRNA; INS1 832/13 cells", "result": 24, "unit": "h"}, {"measurement": "phosphorylation level of Akt", "setting": "Akt; at 24 hr", "result": "decreased"}, {"measurement": "phosphorylation level of Akt", "setting": "Akt; up to 8 hr after treatment", "result": "increased"}]}, {"compound": "O=C(/C=C/c1ccccc1)NC(NC(=S)Nc1cccc2cccnc12)C(Cl)(Cl)Cl", "note": "(centres unmarked) [salubrinal]", "values": [{"measurement": "AATF expression", "setting": "AATF mRNA [2]; wild-type and Perk−/− mouse embryonic fibroblasts, Salubrinal 75 nM, 16 hr", "result": "increased"}, {"measurement": "eIF2α phosphorylation levels", "setting": "eIF2α phosphorylation", "result": "increased"}, {"measurement": "Chop expression", "setting": "Chop mRNA", "result": "increased"}]}]}
